Read-outs that look alike come from different tables or passages of the source.
What was measured:
[1] = biological target: T1, human recombinant his-tagged HSP90α (Homo sapiens, UniProt P07900); test: HSP90 enzyme assay (HTRF, competition with biotinylated Geldanamycin); format: binding; conditions: IC50 range; read-out: Enzyme Assay
T1 construct: purchased Prospec Technogene #HSP90
Outline: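 HTRF competition: compounds (5000 to 0.3 nM, 0.5% DMSO) displace 40 nM biotinylated geldanamycin from 40 nM his-tagged HSP90α. Binding was read via Eu-cryptate anti-his/streptavidin-XL FRET after 20 h at room temperature in Hepes pH 7.3 buffer. IC50 was fitted against controls.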

[2] = tested on: TNF-α levels in LPS-stimulated human whole blood; test: LPS-stimulation of human whole blood (TNF-α levels); format: cell-based; conditions: IC50 range, TNF-α after LPS 100 ng/ml, 6 hours
Method: Whole blood is taken by venous puncture using heparinised vacutainers (Becton Dickinson) and diluted in an equal volume of RPMI1640 tissue culture media (Sigma). 100 μl is then plated in V-bottomed 96 well tissue culture treated plates. 2 Hours after the addition of the inhibitor in 100 μl of RPMI1640 media, the blood is stimulated with LPS (E. Coli strain 005:B5, Sigma) at a final concentration of 100 ng/ml and incubated at 37° C. in 5% CO2 for 6 hours. TNF-α levels are measured from cell-free supernatants by sandwich ELISA (R&D Systems #QTA00B).

[3] = tested on: TNFα release from LPS stimulated THP-1 (hCE-1 +ve) cells; test: LPS-stimulation of THP-1 cells (TNF-α release); format: cell-based, human; conditions: IC50 range, TNF-α after LPS 1 μg/ml, 6 hours, read-out: THP-1 Assay
Method: THP-1 cells are plated in […] at a density of 4×10^4 cells/well in V-bottomed 96 well tissue culture treated plates and incubated at 37° C. in 5% CO2 for 16 hours. 2 Hours after the addition of the inhibitor in 100 μl of tissue culture media, the cells are stimulated with LPS (E. Coli strain 005:B5, Sigma) at a final concentration of 1 μg/ml and incubated at 37° C. in 5% CO2 for 6 hours. TNF-α levels are measured from cell-free supernatants by sandwich ELISA (R&D Systems #QTA00B).

Molecule	IC50 [1] [nM]	IC50 ([2]; Homo sapiens) [nM]	IC50 ([3]; Homo sapiens, THP-1) [nM]	IC50 [2] [nM]	IC50 [3] [nM]
CC(C)C[C@H](NCc1ccc(CN(C)C(=O)c2cc(C(C)C)c(O)cc2O)cc1)C(=O)OC1CCCC1 [Example 70, cyclopentyl N-(4-{[{[2,4-dihydroxy-5-(propan-2-yl)phenyl]carbonyl}(methyl)amino]methyl}benzyl)-L-leucinate]	< 100	100 to 1000	100 to 1000	–	–
CC(C)C[C@H](NCCC1CCN(C(=O)c2cc(C(C)C)c(O)cc2O)CC1)C(=O)OC1CCCC1 [Example 38, cyclopentyl N-[2-(1-{[2,4-dihydroxy-5-(propan-2-yl)phenyl]carbonyl}piperidin-4-yl)ethyl]-L-leucinate]	< 100	100 to 1000	100 to 1000	–	–
CC(C)C[C@H](NCC1CCN(C(=O)c2cc(C(C)C)c(O)cc2O)CC1)C(=O)OC1CCCC1 [Example 21, cyclopentyl N-[(1-{[2,4-dihydroxy-5-(propan-2-yl)phenyl]carbonyl}piperidin-4-yl)methyl]-L-leucinate]	< 100	100 to 1000	< 100	–	–
CC(C)c1cc(C(=O)N2Cc3ccc(CNC(C)(C)C(=O)OC4CCCC4)cc3C2)c(O)cc1O [Example 55, cyclopentyl N-[(2-{[2,4-dihydroxy-5-(propan-2-yl)phenyl]carbonyl}-2,3-dihydro-1H-isoindol-5-yl)methyl]-2-methylalaninate]	< 100	100 to 1000	100 to 1000	–	–
CC(C)c1cc(C(=O)N2CCC(N[C@@H](CC3CCCCC3)C(=O)OC3CCCC3)CC2)c(O)cc1O [Example 13, cyclopentyl 3-cyclohexyl-N-(1-{[2,4-dihydroxy-5-(propan-2-yl)phenyl]carbonyl}piperidin-4-yl)-L-alaninate]	< 100	< 100	100 to 1000	–	–
CC(C)c1cc(C(=O)N2Cc3ccc(CCCNC4(C(=O)OC5CCCC5)CCCC4)cc3C2)c(O)cc1O [Example 65, cyclopentyl 1-{[3-(2-{[2,4-dihydroxy-5-(propan-2-yl)phenyl]carbonyl}-2,3-dihydro-1H-isoindol-5-yl)propyl]amino}cyclopentanecarboxylate]	< 100	100 to 1000	100 to 1000	–	–
CC(C)c1cc(C(=O)N2CCC(CN[C@@H](Cc3ccccc3)C(=O)OC3CCCC3)CC2)c(O)cc1O [Example 23, cyclopentyl N-[(1-{[2,4-dihydroxy-5-(propan-2-yl)phenyl]carbonyl}piperidin-4-yl)methyl]-L-phenylalaninate]	< 100	100 to 1000	100 to 1000	–	–
CC(C)c1cc(C(=O)N(C)Cc2cccc(CNC(C)(C)C(=O)OC3CCCC3)c2)c(O)cc1O [Example 67, cyclopentyl N-(3-{[{[2,4-dihydroxy-5-(propan-2-yl)phenyl]carbonyl}(methyl)amino]methyl}benzyl)-2-methylalaninate]	< 100	100 to 1000	100 to 1000	–	–
CC(C)C[C@H](NCCc1ccc2c(c1)CN(C(=O)c1cc(C(C)C)c(O)cc1O)C2)C(=O)OC1CCCC1 [Example 61, cyclopentyl N-[2-(2-{[2,4-dihydroxy-5-(propan-2-yl)phenyl]carbonyl}-2,3-dihydro-1H-isoindol-5-yl)ethyl]-L-leucinate]	< 100	100 to 1000	100 to 1000	–	–
CC(C)c1cc(C(=O)N2CCC(CCN[C@@H](Cc3ccccc3)C(=O)OC3CCCC3)CC2)c(O)cc1O [Example 40, cyclopentyl N-[2-(1-{[2,4-dihydroxy-5-(propan-2-yl)phenyl]carbonyl}piperidin-4-yl)ethyl]-L-phenylalaninate]	> 1000	> 1000	100 to 1000	–	–
CC(C)C[C@@H](NC1CCN(C(=O)c2cc(C(C)C)c(O)cc2O)C1)C(=O)OC1CCCC1 (stereo partly drawn) [Example 76, cyclopentyl N-(1-{[2,4-dihydroxy-5-(propan-2-yl)phenyl]carbonyl}pyrrolidin-3-yl)-D-leucinate]	< 100	> 1000	> 1000	–	–
CC(C)c1cc(C(=O)N2CCC(CN[C@@H](COC(C)(C)C)C(=O)OC3CCCC3)CC2)c(O)cc1O [Example 34, cyclopentyl O-tert-butyl-N-[(1-{[2,4-dihydroxy-5-(propan-2-yl)phenyl]carbonyl}piperidin-4-yl)methyl]-L-serinate]	< 100	100 to 1000	100 to 1000	–	–
CC(C)C[C@H](NCc1ccc2c(c1)CN(C(=O)c1cc(C(C)C)c(O)cc1O)C2)C(=O)OC1CCCC1 [Example 54, cyclopentyl N-[(2-{[2,4-dihydroxy-5-(propan-2-yl)phenyl]carbonyl}-2,3-dihydro-1H-isoindol-5-yl)methyl]-L-leucinate]	< 100	100 to 1000	100 to 1000	–	–
CC(C)c1cc(C(=O)N2CCC(CCNC(C)(C)C(=O)OC3CCCC3)CC2)c(O)cc1O [Example 44, cyclopentyl N-[2-(1-{[2,4-dihydroxy-5-(propan-2-yl)phenyl]carbonyl}piperidin-4-yl)ethyl]-2-methylalaninate]	< 100	100 to 1000	< 100	–	–
CC(C)c1cc(C(=O)N(C)Cc2cccc(CNC3(C(=O)OC4CCCC4)CCCC3)c2)c(O)cc1O [Example 68, cyclopentyl 1-[(3-{[{[2,4-dihydroxy-5-(propan-2-yl)phenyl]carbonyl}(methyl)amino]methyl}benzyl)amino]cyclopentanecarboxylate]	< 100	> 1000	100 to 1000	–	–
CC(C)c1cc(C(=O)N2Cc3ccc(CN[C@@H](C)C(=O)OC4CCCC4)cc3C2)c(O)cc1O [Example 59, cyclopentyl N-[(2-{[2,4-dihydroxy-5-(propan-2-yl)phenyl]carbonyl}-2,3-dihydro-1H-isoindol-5-yl)methyl]-L-alaninate]	< 100	100 to 1000	< 100	–	–
cyclopentyl N-[(1-{[2,4-dihydroxy-5-(propan-2-yl)phenyl]carbonyl}piperidin-4-yl)methyl]-L-serinate [Example 33]	< 100	–	–	100 to 1000	100 to 1000
CC(C)c1cc(C(=O)N2CCC(N[C@@H](Cc3ccccc3)C(=O)OC3CCCC3)CC2)c(O)cc1O [Example 9, cyclopentyl N-(1-{[2,4-dihydroxy-5-(propan-2-yl)phenyl]carbonyl}piperidin-4-yl)-L-phenylalaninate]	< 100	100 to 1000	100 to 1000	–	–
CC(C)c1cc(C(=O)N2CCC(CN[C@H](C(=O)OC3CCCC3)c3ccccc3)CC2)c(O)cc1O [Example 36, cyclopentyl (2S)-{[(1-{[2,4-dihydroxy-5-(propan-2-yl)phenyl]carbonyl}piperidin-4-yl)methyl]amino}(phenyl)ethanoate]	< 100	100 to 1000	100 to 1000	–	–
CC(C)c1cc(C(=O)N2CCC(NC(C)(C)C(=O)OC3CCCC3)CC2)c(O)cc1O [Example 2, cyclopentyl N-(1-{[2,4-dihydroxy-5-(propan-2-yl)phenyl]carbonyl}piperidin-4-yl)-2-methylalaninate]	< 100	100 to 1000	100 to 1000	–	–
CC(C)c1cc(C(=O)N2CCC(N[C@H](C(=O)OC3CCCC3)c3ccccc3)CC2)c(O)cc1O [Example 4, cyclopentyl (2S)-[(1-{[2,4-dihydroxy-5-(propan-2-yl)phenyl]carbonyl}piperidin-4-yl)amino](phenyl)ethanoate]	< 100	> 1000	> 1000	–	–
CC(C)c1cc(C(=O)N2CCC(CCN[C@@H](COC(C)(C)C)C(=O)OC3CCCC3)CC2)c(O)cc1O [Example 45, cyclopentyl O-tert-butyl-N-[2-(1-{[2,4-dihydroxy-5-(propan-2-yl)phenyl]carbonyl}piperidin-4-yl)ethyl]-L-serinate]	< 100	100 to 1000	100 to 1000	–	–
CC(C)c1cc(C(=O)N(C)Cc2ccc(CNC(C)(C)C(=O)OC3CCCC3)cc2)c(O)cc1O [Example 72, cyclopentyl N-(4-{[{[2,4-dihydroxy-5-(propan-2-yl)phenyl]carbonyl}(methyl)amino]methyl}benzyl)-2-methylalaninate]	< 100	100 to 1000	100 to 1000	–	–
CC(C)c1cc(C(=O)N2CCC(CNC(C)(C)C(=O)OC3CCCC3)CC2)c(O)cc1O [Example 32, cyclopentyl N-[(1-{[2,4-dihydroxy-5-(propan-2-yl)phenyl]carbonyl}piperidin-4-yl)methyl]-2-methyl-L-alaninate]	< 100	100 to 1000	100 to 1000	–	–
CC(C)c1cc(C(=O)N(C)Cc2cccc(CN[C@H](C(=O)OC3CCCC3)c3ccccc3)c2)c(O)cc1O [Example 69, cyclopentyl (2S)-[(3-{[{[2,4-dihydroxy-5-(propan-2-yl)phenyl]carbonyl}(methyl)amino]methyl}benzyl)amino](phenyl)ethanoate]	100 to 1000	> 1000	> 1000	–	–

From patent US9321718B2 (CHROMA THERAPEUTICS LTD., priority 2010, dated 2016)
